Key:
[1] = test system: B-Raf^V600E mutant A375 melanoma cell; assay: Cell proliferation assay (CELLTITER 96), A375; type: cell-based; conditions: Homo sapiens, A-375; A375, 72 hours; read-out: Cytotoxicity (IC50 Ranking) A375 (B-Raf^V600E)
Description: (§1) Inhibition of cell growth by compounds was measured using CELLTITER 96® assay. The cytotoxicity of compounds was evaluated in B-Raf^V600E mutant A375 melanoma cell, B-Raf^V600E mutant COLO205 colon cancer cell, and SK-MEL-2 melanoma cell with wild type B-Raf (B-Raf^wt) and NRASQ^Q61R mutation. A375 and COLO205 cell line were cultured in DMEM containing 10% FCS and incubated at 37° C. in 5% CO2 atmosphere. SK-MEL-2 cell line was cultured in MEM containing 10% FCS and incubated at 37° C. in 5% CO2 atmosphere. A375, COLO205 and SK-MEL-2 cell were seeded into 96-well plates at 2000, 2000, and 4000 cells/well, respectively, and allowed to adhere for overnight. Then, these seeded cells were treated with increasing concentrations of the test compounds and incubated for another 72 hours. At the end of the incubation, CELLTITER 96® Aqueous One Solution Reagent (Promega) was added and incubated for 4 hours. Cell viability was determined by measuring absorbance at 490 nm using EMAX® microplate reader (Molecular Devices).
(§2) The 50% inhibitory concentration (IC50) value was calculated by plotting the percentage of growth inhibition against the concentration of compound, using GraphPad Prism5 software for curve fitting.

[2] = test system: SK-MEL-2 melanoma cell with wild type B-Raf (B-Raf^wt) and NRAS^Q61R mutation; assay: Cell proliferation assay (CELLTITER 96), SK-MEL-2; type: cell-based; conditions: Homo sapiens; SK-MEL-2, 72 hours; given as bound; read-out: Cytotoxicity (IC50 Ranking) SK-MEL-2 (NRAS^Q61R, B-Raf^wt)
Description: as §1, §2

C-Raf kinase = molecular target: T1, C-Raf kinase (Homo sapiens, UniProt P04049); assay: C-Raf kinase assay ([33P] incorporation into MEK1 K97R); type: biochemical; conditions: recombinant C-Raf, 8 μM ATP, 30 min, 30° C.; read-out: IC50 ranking against C-Raf kinase
T1 construct: purchased Upstate Biotechnology
Description: (§3) Inhibition of kinase activity by a test compound disclosed herein was estimated by quantifying the amount of [^33P] incorporation of a substrate in the presence of the test compound. Standard assay conditions were 2 ng of recombinant C-Raf kinase (Upstate Biotechnology) with 500 ng MEK1(K97R) in assay buffer (8 μM ATP, 0.5 μCi [^33P]ATP (specific activity 3000 Ci/mmol, PerkinElmer), 50 mM Tris/HCl (pH 7.5), and 1 mM EGTA, 1 mM Na3VO4, 1% 2-mercaptoethanol, 0.1% Brij 35, and 0.2 mg/ml BSA), and the test compound (diluted with 4% DMSO) or DMSO alone (as a control) in a final volume of 25 μL. Reactions were incubated at 30° C. for 30 min and stopped by adding 3% phosphoric acid, harvested onto a 96-well GF/B UniFilter (PerkinElmer) using a unifilter harvester (PerkinElmer), and counted with a TopCount microplate scintillation counter (PerkinElmer). The IC50 values of inhibitors were determined after carrying out assays at 3-fold serially diluted concentrations of each compound in duplication. The results were analyzed using linear regression software (GraphPad Prism 4; GraphPad Software Inc.).

B-Raf kinase = molecular target: T2, B-Raf kinase (Homo sapiens, UniProt P15056); assay: B-Raf kinase assay ([33P] incorporation into MEK1 K97R); type: biochemical; conditions: recombinant B-Raf, 8 μM ATP, 30 min, 30° C.; read-out: IC50 ranking against B-Raf kinase
T2 construct: purchased Upstate Biotechnology
Description: Inhibition of kinase activity by a test compound disclosed herein was estimated by quantifying the amount of [^33P] incorporation of a substrate in the presence of the test compound. Standard assay conditions were 5 ng of recombinant B-Raf kinase (Upstate Biotechnology) with 500 ng MEK1(Map-erk kinase; K97R) in the assay buffer (8 μM ATP, 0.5 μCi [^33P]ATP (specific activity 3000 Ci/mmol, PerkinElmer), 50 mM Tris/HCl (pH 7.5), and 1 mM EGTA, 1 mM Na3VO4, 1% 2-mercaptoethanol, 0.1% Brij 35, and 0.2 mg/ml BSA) in a final volume of 25 μL. Reactions were incubated at 30° C. for 30 min and stopped by adding 3% phosphoric acid, harvested onto a 96-well GF/B UniFilter (PerkinElmer) using a unifilter harvester (PerkinElmer), and counted with a TopCount microplate scintillation counter (PerkinElmer). The IC50 values of inhibitors were determined after carrying out assays at 3-fold serially diluted concentrations of each compound in duplication. The results were analyzed using linear regression software (GraphPad Prism 4; GraphPad Software Inc.).

B-Raf^V600E kinase = molecular target: T3, B-Raf^V600E kinase (Homo sapiens, UniProt P15056, V600E); assay: B-Raf V600E kinase assay ([33P] incorporation into MEK1 K97R); type: biochemical; conditions: recombinant B-Raf^V600E, 8 μM ATP, 30 min, 30° C.; read-out: IC50 ranking against B-Raf^V600E kinase
T3 construct: purchased Upstate Biotechnology
Description: as §3, with “were 5” for “were 2”, “recombinant B-Raf^V600E” for “recombinant C-Raf”, “ng MEK1 (K97R)” for “ng MEK1(K97R)”

[3] = test system: B-Raf^V600E mutant COLO205 colon cancer cell; assay: Cell proliferation assay (CELLTITER 96), COLO205; type: cell-based; conditions: Homo sapiens, COLO 205; COLO205, 72 hours; read-out: Cytotoxicity (IC50 Ranking) COLO205 (B-Raf^V600E)
Description: as §1, §2

T1 sequence (P04049 whole entry): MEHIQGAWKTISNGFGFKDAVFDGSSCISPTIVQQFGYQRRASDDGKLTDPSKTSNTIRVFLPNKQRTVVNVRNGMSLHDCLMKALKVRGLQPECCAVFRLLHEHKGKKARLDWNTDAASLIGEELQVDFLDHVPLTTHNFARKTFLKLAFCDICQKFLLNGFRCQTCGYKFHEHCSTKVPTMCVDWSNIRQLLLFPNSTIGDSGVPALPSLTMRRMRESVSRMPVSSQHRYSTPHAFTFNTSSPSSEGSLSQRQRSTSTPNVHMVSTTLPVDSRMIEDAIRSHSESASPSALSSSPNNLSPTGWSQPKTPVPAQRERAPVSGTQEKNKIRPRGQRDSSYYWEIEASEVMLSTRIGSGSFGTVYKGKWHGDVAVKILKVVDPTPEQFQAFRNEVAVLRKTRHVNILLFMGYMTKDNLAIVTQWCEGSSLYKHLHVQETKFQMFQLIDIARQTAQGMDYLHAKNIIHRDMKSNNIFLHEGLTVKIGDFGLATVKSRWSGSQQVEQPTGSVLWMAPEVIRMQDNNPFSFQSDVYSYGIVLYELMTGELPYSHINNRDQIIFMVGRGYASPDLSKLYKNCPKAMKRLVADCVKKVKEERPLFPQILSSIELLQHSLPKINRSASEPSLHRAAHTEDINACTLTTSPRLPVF
T2 sequence (P15056 whole entry): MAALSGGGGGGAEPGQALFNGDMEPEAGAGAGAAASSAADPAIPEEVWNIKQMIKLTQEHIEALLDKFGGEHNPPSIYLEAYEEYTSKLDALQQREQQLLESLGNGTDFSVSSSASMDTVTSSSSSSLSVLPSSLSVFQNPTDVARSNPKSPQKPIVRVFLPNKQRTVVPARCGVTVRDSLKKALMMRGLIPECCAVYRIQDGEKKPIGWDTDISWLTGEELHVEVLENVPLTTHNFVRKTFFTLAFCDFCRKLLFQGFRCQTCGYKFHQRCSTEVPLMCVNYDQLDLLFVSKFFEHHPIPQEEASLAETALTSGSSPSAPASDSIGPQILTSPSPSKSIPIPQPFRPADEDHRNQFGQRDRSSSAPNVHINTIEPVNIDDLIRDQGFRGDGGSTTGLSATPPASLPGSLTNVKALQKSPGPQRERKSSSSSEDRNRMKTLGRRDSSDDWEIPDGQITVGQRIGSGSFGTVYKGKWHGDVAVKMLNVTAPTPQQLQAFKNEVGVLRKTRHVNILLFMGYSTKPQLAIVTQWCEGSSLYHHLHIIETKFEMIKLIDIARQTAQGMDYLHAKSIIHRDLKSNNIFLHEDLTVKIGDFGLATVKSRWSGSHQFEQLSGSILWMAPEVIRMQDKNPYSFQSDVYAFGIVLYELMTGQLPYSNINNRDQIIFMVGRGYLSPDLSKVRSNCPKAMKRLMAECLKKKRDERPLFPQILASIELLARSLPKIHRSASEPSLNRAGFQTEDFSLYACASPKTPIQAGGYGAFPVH
T3 sequence (P15056 whole entry V600E): as the sequence (P15056 whole entry) above, with V600E counted along it

SMILES	IC50 (C-Raf kinase)	IC50 (B-Raf kinase)	IC50 (B-Raf^V600E kinase)	IC50 [1]	IC50 [2]	IC50 [3]
COc1cnc2ccc(Nc3c(F)ccc(NS(C)(=O)=O)c3F)c([N+](=O)[O-])c2n1 [compound 14, N-{2,4-difluoro-3-[(3-methoxy-5-nitro-6-quinoxalinyl)amino]phenyl}methanesulfonamide]	300 to 1000 nM	300 to 1000 nM	300 to 1000 nM	1000 to 10000 nM	> 10000 nM	1000 to 10000 nM
CCCS(=O)(=O)Nc1ccc(F)c(Nc2ccc3ncc(N(C)C)nc3c2C#N)c1F [compound 18, N-(3-(5-cyano-3-(dimethylamino)quinoxalin-6-ylamino)-2,4-difluorophenyl)propane-1-sulfonamide]	< 300 nM	< 300 nM	< 300 nM	< 300 nM	> 10000 nM	< 300 nM
CCCS(=O)(=O)Nc1ccc(F)c(Nc2ccc3ncc(N4CCOCC4)nc3c2C#N)c1F [compound 19, N-(3-(5-cyano-3-morpholinoquinoxalin-6-ylamino)-2,4-difluorophenyl)propane-1-sulfonamide]	< 300 nM	< 300 nM	< 300 nM	< 300 nM	> 10000 nM	< 300 nM
CCCS(=O)(=O)Nc1ccc(F)c(Nc2ccc3ncc(NC)nc3c2C#N)c1F [compound 20, N-(3-(5-cyano-3-(methylamino)quinoxalin-6-ylamino)-2,4-difluorophenyl)propane-1-sulfonamide]	< 300 nM	< 300 nM	< 300 nM	< 300 nM	> 10000 nM	< 300 nM
CCCS(=O)(=O)Nc1c(F)ccc(Nc2ccc3ncc(OC)nc3c2C#N)c1F [compound 21, N-(3-(5-cyano-3-methoxyquinoxalin-6-ylamino)-2,6-difluorophenyl)propane-1-sulfonamide]	< 300 nM	< 300 nM	< 300 nM	< 300 nM	> 10000 nM	< 300 nM
CCCS(=O)(=O)Nc1cc(Nc2ccc3ncc(OC)nc3c2C#N)ccc1F [compound 22, N-(5-(5-cyano-3-methoxyquinoxalin-6-ylamino)-2-fluorophenyl)propane-1-sulfonamide]	< 300 nM	< 300 nM	< 300 nM	< 300 nM	> 10000 nM	< 300 nM
CCOc1cnc2ccc(Nc3cc(NS(=O)(=O)c4ccccc4)ccc3F)c(C#N)c2n1 [compound 24, N-(3-(5-cyano-3-ethoxyquinoxalin-6-ylamino)-4-fluorophenyl)benzenesulfonamide]	< 300 nM	< 300 nM	< 300 nM	300 to 1000 nM	> 10000 nM	< 300 nM
CS(=O)(=O)Nc1ccc(F)c(Nc2ccc3ncc(N4CCOCC4)nc3c2C#N)c1 [compound 26, N-(3-(5-cyano-3-morpholinoquinoxalin-6-ylamino)-4-fluorophenyl)methanesulfonamide]	1000 to 10000 nM	1000 to 10000 nM	1000 to 10000 nM	1000 to 10000 nM	> 10000 nM	1000 to 10000 nM

The next lines start with results.

IC50 (C-Raf kinase)	IC50 (B-Raf kinase)	IC50 (B-Raf^V600E kinase)	SMILES	IC50 [1]	IC50 [2]	IC50 [3]
< 300 nM	< 300 nM	< 300 nM	CCCS(=O)(=O)Nc1ccc(F)c(Nc2ccc3ncc(O)nc3c2C#N)c1F [compound 15, N1-{3-[(5-cyano-3-hydroxy-6-quinoxalinyl)amino]-2,4-difluorophenyl}-1-propanesulfonamide]	300 to 1000 nM	> 10000 nM	300 to 1000 nM
< 300 nM	< 300 nM	< 300 nM	CCCS(=O)(=O)Nc1ccc(F)c(Nc2ccc3ncc(OCCN4CCOCC4)nc3c2C#N)c1F [compound 16, N1-(3-{[5-cyano-3-(2-morpholinoethoxy)-6-quinoxalinyl]amino)-2,4-difluorophenyl)-1-propanesulfonamide]	< 300 nM	> 10000 nM	< 300 nM
< 300 nM	< 300 nM	< 300 nM	CCCS(=O)(=O)Nc1ccc(F)c(Nc2ccc3ncc(OCC)nc3c2C#N)c1F [compound 17, N-(3-(5-cyano-3-ethoxyquinoxalin-6-ylamino)-2,4-difluorophenyl)propane-1-sulfonamide]	< 300 nM	> 10000 nM	< 300 nM
1000 to 10000 nM	300 to 1000 nM	300 to 1000 nM	CCCS(=O)(=O)Nc1ccc(F)c(Nc2ccc3ncc(N4CCOCC4)nc3c2C#N)c1 [compound 23, N-(3-(5-cyano-3-morpholinoquinoxalin-6-ylamino)-4-fluorophenyl)propane-1-sulfonamide]	< 300 nM	> 10000 nM	< 300 nM
< 300 nM	< 300 nM	< 300 nM	N#Cc1c(Nc2cc(NS(=O)(=O)c3ccccc3)ccc2F)ccc2ncc(N3CCOCC3)nc12 [compound 25, N-(3-(5-cyano-3-morpholinoquinoxalin-6-ylamino)-4-fluorophenyl)benzenesulfonamide]	300 to 1000 nM	> 10000 nM	< 300 nM
1000 to 10000 nM	1000 to 10000 nM	1000 to 10000 nM	CCOc1cnc2ccc(Nc3cc(NS(C)(=O)=O)ccc3F)c(C#N)c2n1 [compound 27, N-(3-(5-cyano-3-ethoxyquinoxalin-6-ylamino)-4-fluorophenyl)methanesulfonamide]	1000 to 10000 nM	> 10000 nM	300 to 1000 nM
< 300 nM	300 to 1000 nM	300 to 1000 nM	CCCS(=O)(=O)Nc1ccc(F)c(Nc2ccc3ncc(N(C)C)nc3c2C#N)c1 [compound 28, N-(3-(5-cyano-3-(dimethylamino)quinoxalin-6-ylamino)-4-fluorophenyl)propane-1-sulfonamide]	300 to 1000 nM	> 10000 nM	< 300 nM

— patent publication US10745360B2, “Quinoxaline compounds, method for preparing the same and use thereof” (Development Center for Biotechnology, priority 2014, dated 2020)
